The test system of one assay is Influenza. Briefly: Anti-Influenza antibody generation in BALB/c mice following immunization with the Fluviral vaccine (ELISA). The class given is in vivo. The note with it: intramuscular. The procedure:
To test the adjuvant potential of LTB4, groups of 10 BALB/c mice were immunized once by intramuscular injection with 5 μl of the commercial “Fluviral” vaccine preparation in combination with saline or 1 ng of LTB4. Fourteen days following immunization, mice were bled and sera analyzed for specific anti-Influenza IgG antibodies by ELISA.
Adult (6-8 weeks) BALB/c female mice were immunized by intramuscular injection with 5 μl of the commercial Influenza (Fluviral) vaccine in combination or not with 1 ng of LIB4. Fourteen days later, mice were bled by cardiac puncture and sera obtained. Anti-Influenza antibodies were quantitated by enzyme-linked immunosorbent assay (ELISA). Wells of a 96-well plate were coated with the Fluvial vaccine preparation ( 1/100 dilution) in 0.1 M carbonate buffer (pH 9.0) by overnight incubation at 4° C. Wells were washed with Tris-buffered saline with 0.1% Tween-20 (TBS-T) followed by the addition of 100 μl of increasing dilutions of the sera to be tested. […] After 30 minutes, the absorbance (405 nm) from each well was recorded using an ELISA plate reader. The values, expressed as optical density (OD), were plotted against the reciprocal of serum dilution.
In general terms: An ELISA detects its analyte on a solid surface through an enzyme-linked reagent.

Assay [1] has as its system mycobacterium tuberculosis. The class given is in vivo, BALB/c mice. The note with it: 1-10 ng LTB4 with BCG vaccine, intradermal on days 0, 24, 68 and 145; sera at day 160.
For assay [2], the system named is murine CMV. The experiment in a line: Total anti-CMV antibodies following acute CMV infection in BALB/c mice (ELISA). Format: in vivo. The note with it: LTB4 5 μg/kg i.p. 3 times a week for 12 weeks from day 5 post-infection. The method, then:
Our next series of experiments were designed to test the potential of LTB4 to modulate antibody response during an acute CMV infection. BALB/c mice were infected by intraperitoneal (i.p.) injection with 10,000 pfu of murine CMV. On day 5 post-infection, mice (n=10) received saline by i.p. injection or LTB4 (5 μg/kg) (n=9) by i.p. injection 3 times a week for 12 weeks. At that time, sera was taken from each mouse and tested for anti-CMV specific antibodies.
Adult (6-8 weeks) female BALB/c mice were infected by intraperitoneal (I.P.) injection with 1×10^4 pfa of murine CMV. Starting on the fifth day post-infection, mice were injected with saline or LTB4 (5 μg/kg) by I.P. injection at a frequency of three times a week for 12 weeks. Mice were then bled and sacrificed. Total anti-CMV antibodies from each mouse were quantified by ELISA. ELISA plates were coated with a lysates from CMV-infected fibroblasts as the source of CMV antigens. One μg of protein lysates were added to each well and incubated-overnight at 4° C. After several washes with TBS-T, non-specific sites were blocked by the addition of saline containing 10% fetal bovine serum for one hour at room temperature. […] After 30 minutes, the absorbance (405 nm) from each well was recorded using an ELISA plate reader. The values, expressed as optical density (OD), were plotted against the reciprocal of serum dilution. […]

For assay [3], the system named is murine CMV. Briefly: Neutralizing CMV antibodies in sera of CMV-infected mice (plaque reduction on mouse embryonic fibroblast). The note with it: the 7 positive sera of LTB4 treated mice; 1/100 dilution; 175 pfu murine CMV. Format: in vivo, BALB/c mice. The method, then:
Lastly, the sera from each mouse infected with CMV and treated with saline or LTB4 (see above) were analyzed for neutralizing antibodies. Briefly, a 1/100 dilution of individual serum was incubated with 175 pfu of murine CMV for 1 hour on ice. Samples (sera-virus) were then added to mouse embryonic fibroblast and incubated at 37° C. for 2 hour. Unadsorbed viruses were removed and cells were overlaid with methyl cellulose and incubated for 4 days at 37° C. in a humidified atmosphere with 5% CO2. At this time cells were fixed, colored with violet crystal and the number of plaques (CMV infected foci) counted. […] Uninfected mice had no neutralizing antibodies against CMV, as expected. […] We next compared the neutralizing activity of sera that tested positive for CMV neutralization. The 2 sera of infected mice that received saline were able to reduce, in average, CMV infectivity by 24%. In contrast, the 7 sera of LTB4 treated-mice were found capable of reducing CMV infectivity by 45%, almost twice the activity of control mice.
The serum from each mouse, described above, were tested for their CMV neutralizing activity. Briefly, a 1/100 dilution of individual serum was incubated with 175 pfu of murine CMV for 1 hour on ice. […] At this time cells were fixed, colored with violet crystal and the number of plaques (CMV infected foci) counted. […]

For a further assay, the system named is B lymphocytes. The conditions noted are these: cited from earlier work.

Entries after “also recorded” stand apart in the source; their conditions may differ.

Regarding `CCCCC/C=C\C[C@@H](O)/C=C/C=C/C=C\[C@@H](O)CCCC(=O)O` [LTB4, Leukotriene B4], in the assay on Influenza (1 ng LTB4 with 5 μl Fluviral vaccine, once, sera at day 14, p<0.05 in all three dilutions), the “anti-Influenza IgG antibody response (ELISA OD) versus vaccine + saline” value is listed as “greater anti-Influenza antibody response; also recorded: significantly higher anti-Influenza antibody response”. Also, the “optimal dose of LTB4 as adjuvant” value in the assay with Influenza (with 5 μl Fluviral vaccine) is 1 ng. Also, in assay [1], the “anti-BCG antibodies (ELISA OD) versus BCG + saline” value was “higher levels of anti-BCG antibodies; also recorded: greater reactivity against mycobacterium antigens”. In addition, the “total anti-CMV antibodies (ELISA OD) versus saline-treated group” value with murine CMV [2] is given as “more anti-CMV antibodies”. Further, the “reduction of CMV infectivity by sera positive for CMV neutralization (average)” value in the assay with murine CMV [3] was determined as 45%. In the assay with B lymphocytes (LTB4 by itself, in absence of exogenous cytokines or stimuli, in vitro), the “effect on B cell proliferation or immunoglobulin synthesis (IgG or IgM)” value is “no effects”. For the same compound, the “effect on synthesis of immunoglobulin from B lymphocytes” value with B lymphocytes (conflicting paper (Rola-Plecszczynski 1982)) is “inhibitory effects”.

These data come from patent US7914800B2, “LTB4 as vaccine adjuvant” (priority 2001, dated 2011).
